Literature values as cited in patent publication US4939134A, “26-aminocholesterol and derivatives and analogs thereof in the regulation of cholesterol accumulation in body tissue” (New York University, priority 1988, dated 1990).

Experiments:
[1] = system: hepatic cholesterol synthesis; settings: cited from earlier work
[2] = system: HMG CoA reductase; settings: cited from earlier work
[3] = system: LDL receptors; settings: fibroblasts and other non-hepatic cells, cell culture studies; cited from earlier work

For CC[C@H](C)C(=O)O[C@H]1C[C@@H](C)C=C2C=C[C@H](C)[C@H](CC[C@@H]3C[C@@H](O)CC(=O)O3)[C@H]21 [mevinolin], the hepatic cholesterol synthesis [1] is given as “inhibit hepatic cholesterol synthesis”, the “amount of HMG CoA reductase” value [2] is given as “increases the amount of HMG CoA reductase” and the LDL receptors [3] is given as “upregulates LDL receptors”.
